Data set [1] relates to HT29 cell line. The data set is described as follows: BrdU cell growth inhibition, HT29. The settings on record: Homo sapiens. In kind it is cell-based, human. A digest of the protocol: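 HT29 colon carcinoma cells treated with compounds diluted from 20 mM DMSO stocks into DMEM/10% FBS. Proliferation read as colorimetric BrdU incorporation ELISA; GI calculated relative to untreated cells at time 0 and control cells at day n, with GI50 extrapolated. Net cell loss below time-0 level scored as cytotoxicity.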

In data set [2] the test system is c-Src 3T3 cells. The data set is described as follows: BrdU cell growth inhibition, c-Src 3T3. The settings on record: Mus musculus. The data set is classed as cell-based, mouse. A digest of the protocol:
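c-Src 3T3 cells on poly-D-lysine plates in DMEM with 2% FBS, L-glutamine, pyruvate and 10 mM HEPES. Compounds came from 20 mM DMSO stocks diluted in DMEM/10% FBS. Proliferation was read by colorimetric BrdU-incorporation ELISA, and GI50 was extrapolated from growth relative to time-zero and untreated controls.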

Data set [3] is described as follows: noise-induced hearing loss. The conditions noted are these: chinchilla ears treated on round window, 4 kHz band noise 105 dB SPL 4 h, days 1, 7, 21; relative to control ears. In kind it is in vivo, Chinchillas. Here is the method:
Chinchillas (N=6) were used in studies of noise-induced hearing loss. The animals' hearing sensitivity was measured using standard electrophysical techniques before the experimental manipulation. […] Animals were anesthetized, the auditory bullae were opened, and the left and right cochleas were visualized. The round window leading to the scala tympani of the cochlea was used as the access point for drug application. Animals were treated with KX1-004, KX1-141, KX1-329 or KX2-328 (a non-ATP competitive inhibitor from AstraZeneca, KX2-238), emulsified in DMSO, in 1000 mM of saline solution, which was placed on the round window of one ear. KX1-004:
A control solution of 3 mM DMSO in 1000 mM of saline solution was placed on the round window of the other ear. The solution was allowed to set on the round window for 30 minutes, then the auditory bullae were closed. […] Following the noise exposure, the animals' hearing was tested at day 1, day 7, and day 21 to determine evoked potential threshold shifts. Permanent threshold shift was assessed at day 21.
FIGS. 10-12 show the average threshold shifts for animals treated with KX1-004, KX1-141, KX1-329 or KX2-328.

Data set [4] concerns osteoclast precursors derived from spleen cells. Kind of data set: osteoclast formation from spleen cells. The conditions noted are these: 5 days, RANKL and M-CSF, vs untreated control. In kind it is cell-based. Here is the method: To determine the effect of the compounds on osteoclast formation, the compounds were added to osteoclast precursors derived from spleen cells. For the generation of spleen-derived osteoclasts, spleen cells comprising osteoclast precursors were treated with Rapamycin, KX1-141, KX2-328 (AstraZeneca compound), or KX1-329 for 5 days in the presence of receptor activator of nuclear factor-xB ligand (RANKL) and macrophage colony-stimulating factor (M-CSF). In in vitro murine or human osteoclast models, soluble RANKL enables osteoclast precursors to differentiate in the presence of M-CSF (Quinn, et al.; 1998, Endocrinology, 139, 4424-4427; Jimi, et al.; 1999, J. Immunol., 163, 434-442). The untreated control cells were incubated in the presence of RANKL and M-CSF alone. Rapamycin was used as a positive control for the inhibition of osteoclast formation.
For generating spleen-derived osteoclasts, spleen cells were treated as described above. […] Cells were then stained with the osteoclast marker, tartrate-resistant acid phosphatase (TRAP) to visualize differentiated cells. The numbers of TRAP-positive osteoclasts were counted.

For data set [5], the system named is osteoclasts. The data set is described as follows: osteoclast survival. The data set is classed as cell-based. The conditions noted are these: 48 hours, RANKL and M-CSF, vs untreated control. Here is the method: To determine the effect of the compounds on osteoclast survival, osteoclasts were treated with Rapamycin, KX1-141, KX2-328, or KX1-329 for 48 hours in the presence of RANKL and M-CSF. The untreated, control cells were incubated in the presence of RANKL and M-CSF alone. Rapamycin was used as a positive control for the inhibition of osteoclast survival.
As described above, osteoclasts were treated with Rapamycin, KX1-141, KX2-328, or KX1-329 for 48 hours in the presence of RANKL and M-CSF. […] Cells were then stained with TRAP and the number of TRAP-positive osteoclasts were counted.

The subject of data set [6] is osteoclasts on bone slices. The data set is described as follows: osteoclast formation on bone slices. The data set is classed as cell-based. The conditions noted are these: vs untreated control. As to the method:
To determine the effects of the compounds on osteoclast formation on bone slices, the bone slices were treated with Rapamycin, KX1-141, KX2-328, or KX1-329. […] The number of osteoclasts on the bone slices were counted.
Bone slices were treated as indicated above. […] The bone slices were then stained with TRAP.

For data set [7], the system named is resorption pits on bone slices. Kind of data set: resorption pit formation on bone slices. In kind it is cell-based. The conditions noted are these: vs untreated control. Here is the method:
During the resorption of bone, osteoclasts form resorption pits. To determine the effects of the compounds on resorption pit formation on bone slices, the bone slices were treated with Rapamycin, KX1-141, KX2-328, or KX1-329, as described above. […] The number of resorption pits on the bone slices was determined.
Bone slices were treated as indicated above. […] The bone slices were stained with Toluidine Blue to reveal resorption pits, which are indicators of osteoclast-mediated resorption of bone.

For data set [8], the system named is osteoblasts. Kind of data set: osteoblast protein expression. The data set is classed as cell-based. Here is the method: The enzyme alkaline phosphatase has been used as an indicator of osteoblast activity, as it is involved in making phosphate available for calcification of bone.
To determine the effects of the compounds on osteoblast activity and protein expression, osteoblasts were treated with medium, DMSO, BMP2, KX1-141, KX2-328, or KX1-329 as indicated above. The protein concentration in cell lysates was determined (μg/10 μl) (FIG. 23).

The subject of data set [9] is K562 (CML). Kind of data set: growth inhibition (BrdU), K562. The data set is classed as cell-based, Human. The conditions noted are these: Homo sapiens; K562, BrdU, T=72. The source says: Growth Inhibition. […] T1 values≤T0 values were designated as T, cytotoxicity.
Data set [10] relates to MOLT-4 (Adult lymphoblastic leukemia). The data set is described as follows: growth inhibition, MOLT-4. The data set is classed as cell-based, Human. The settings on record: Homo sapiens.
The subject of data set [11] is CCRF-HSB-2 (Adult lymphoblastic leukemia). Kind of data set: growth inhibition, CCRF-HSB-2. The data set is classed as cell-based, Human.
Data set [12] concerns Ba/F3 (IL-3 induced). The data set is described as follows: MTT growth inhibition, Ba/F3 + IL-3. The data set is classed as cell-based. The settings on record: 96 hrs.
The subject of data set [13] is HuH7. Kind of data set: MTT growth inhibition, HuH7. The settings on record: Homo sapiens, Huh-7, 78 h. The data set is classed as cell-based, human. Here is the method: Samples of the test compounds were formulated in 100% DMSO to obtain 20 mM stock solutions; stored @ 4° C. The IC50s and IC80s were determined as described below. Huh7, WRL-68, PLC/PRF/5, Hep 3B, and Hep G2 human cancer lines were routinely cultured and maintained in a basal medium containing 2% FBS @ 37° C., 5% CO2. […] The assay medium was basal medium/1.5% FBS. Cells were cultured overnight in 96-well plates at 37° C., 5% CO2 prior to KX2-391. MSA and Dasatinib addition. […] 10 μL of 20× dilutions were added to the appropriate wells (n=3) containing 190 μL cancer cell line; 6561 nM to 0.012 nM range of final concentrations. Vehicle control contained cells, no sample. Medium control contained cells, no sample, 0.03% DMSO (highest DMSO concentration present in samples). […] On day 3, 10 μL MTT (5 mg/mL) were added to each well. Cells were incubated in the presence of MTT for 4 hours @ 37° C., 5% CO2. […] Cells were then incubated overnight @ 37°, 5% CO2. OD570 measurements were taken using BioTek Synergy HT multiplatform microplate reader. Growth inhibition curves IC50s and IC80s were determined using GraphPad Prism 5 statistical software.

Data set [14] has as its system WRL-68. Kind of data set: MTT growth inhibition, WRL-68. In kind it is cell-based, human. The conditions noted are these: Homo sapiens, WRL68, 78 h. As to the method:
(§1) Samples of the test compounds were formulated in 100% DMSO to obtain 20 mM stock solutions; stored @ 4° C. The IC50s and IC80s were determined as described below. Huh7, WRL-68, PLC/PRF/5, Hep 3B, and Hep G2 human cancer lines were routinely cultured and maintained in a basal medium containing 2% FBS @ 37° C., 5% CO2. […] Vehicle control contained cells, no sample. Medium control contained cells, no sample, 0.03% DMSO (highest DMSO concentration present in samples). […] On day 3, 10 μL MTT (5 mg/mL) were added to each well. Cells were incubated in the presence of MTT for 4 hours @ 37° C., 5% CO2. […] Cells were then incubated overnight @ 37°, 5% CO2. OD570 measurements were taken using BioTek Synergy HT multiplatform microplate reader. Growth inhibition curves IC50s and IC80s were determined using GraphPad Prism 5 statistical software.

Data set [15] deals with PLC/PRF/5. The data set is described as follows: MTT growth inhibition, PLC/PRF/5. The settings on record: Homo sapiens, PLC-PRF-5, 78 h. In kind it is cell-based, human. Here is the method:
as §1

Data set [16] deals with Hep 3B. Kind of data set: MTT growth inhibition, Hep 3B. In kind it is cell-based, human. The settings on record: Homo sapiens, Hep3B, 78 h. Here is the method:
as §1

The test system of data set [17] is H226. The data set is described as follows: MTT growth inhibition, Dasatinib-resistant H226. The data set is classed as cell-based, human. The settings on record: Homo sapiens, NCI-H226, H226, 8.0×10^3 cells/well, 1.5% FBS, 78 Hr.
Description: Cell proliferation/growth inhibition was assessed using MTT colorimetric assay.
On Day 3, 10 μL MTT (5 mg/mL) was added to each well. Cells were then incubated in the presence of MTT for 4 hours at 37° C., appropriate CO2 conditions. After this incubation period, 90 μL 10% SDS(+HCl) was added to each well to lyse cells and solubilize formazan. Cells were then incubated overnight at 37° C., appropriate CO2 conditions.
The OD570 was measured using microplate reader. Growth inhibition curves and EC50/IC50 was determined using GraphPad Prism 4 statistical software.
The subject of data set [18] is PC3-MM2 prostate cancer cells. The data set is described as follows: orthotopic prostate model for in vivo metastases. Details: species or system Nu/Nu mice. The settings on record: 15 mg/kg/day oral gavage. Here is the method:
Nu/Nu mice (8-12 weeks of age) were injected with PC3-MM2 prostate cancer cells into the prostate as described previously in Pettaway et al., Clin Cancer Res 1996, 2:1627-1636, hereby incorporated herein by reference in its entirety. […] All mice were sacrificed by cervical dislocation on about day 42. Tumor volume (measured by caliper), weight, and incidence of regional (celiac or para-aortal) lymph node metastases were recorded.

Data set [19] relates to HT29 (human colon cancer). The conditions noted are these: mouse, in vivo.

Entries after “also recorded” stand apart in the source; their conditions may differ.

This note sets out measurements from patent publication US10196357B2, “Biaryl compositions and methods for modulating a kinase cascade” (Athenex, Inc., priority 2007, dated 2019).

Usually GI50 stands for the concentration that inhibits growth by half. What is called IC50 is the point on the concentration scale where inhibition reaches its midpoint. What is called IC80 is the concentration at which the effect reaches the 80% level.

Turning to `O=C(Cc1ccc(-c2ccccc2)cn1)NCc1cccc(F)c1` [KX1-329], the GI50 in [1] (HT-29, HT29 (Colon) cells, read-out: GI50) came to 338 nM. Moreover, in data set [1] (HT-29, 50 nM, read-out: HT-29 Growth, % of Control Mean, n = 3), the activity at 0.05 µM was 101%. The activity at 0.5 µM in data set [1] (HT-29, 500 nM, read-out: HT-29 Growth, % of Control Mean, n = 3) is below 0%. Moreover, the activity at 5 µM in data set [1] (HT-29, 5 uM, read-out: HT-29 Growth, % of Control Mean, n = 3) was below 0%. Further, the activity at 0.1 µM in [2] (NIH3T3, 100 nM, read-out: c-Src 3T3 Growth, % of Control Mean, n = 3) turned out to be 96%. For the same molecule, the activity at 1 µM in [2] (NIH3T3, 1.0 uM, read-out: c-Src 3T3 Growth, % of Control Mean, n = 3) is below 0%. In addition, the activity at 10 µM in [2] (NIH3T3, 10 uM, read-out: c-Src 3T3 Growth, % of Control Mean, n = 3) is below 0%. The GI50 in data set [2] (c-Src 3T3 (c-Src527F/NIH3T3) cells, read-out: GI50) turned out to be 269 nM. The “average dB threshold shifts” value in [3] was “lower”. In data set [4], the “formation of osteoclasts (staining)” value is reported as “inhibited” and the “number of TRAP-positive osteoclasts (formation)” value is on record as “reduced”. In data set [5], the “number of TRAP-positive osteoclasts (survival)” value is recorded as “reduced” and the “survival of osteoclasts (staining)” value is on record as “inhibited”. Also, in data set [6] (FIG. 20A), the “number of osteoclasts on the bone slices” value is recorded as “reduced”. Besides, in data set [6] (FIG. 21A), the “number of TRAP-positive osteoclasts on the bone slices” value is on record as “reduced”. Further, in data set [7] (FIG. 20B), the “number of resorption pits on the bone slices” value was “reduced”. The “number of resorption pits on the bone slices (Toluidine Blue)” value in data set [7] (FIG. 21B) is given as “reduced”. Also, in data set [8] (0.06 μM and 0.3 μM), the “protein concentration in osteoblast cell lysates” value is reported as “increased protein concentration”. Besides, the “protein concentration in osteoblast cell lysates” value in data set [8] ([…] and 7.5 μM) is given as “reduced protein concentration”.
In the case of `Cc1nc(Nc2ncc(C(=O)Nc3c(C)cccc3Cl)s2)cc(N2CCN(CCO)CC2)n1` [Dasatinib, reference compound], the GI50 in [9] is below 1 nM; in data set [10] it was 644 nM; in data set [11], “Inactive (n = 1)”; in data set [12] it was “does not inhibit; also recorded: Inactive”. Further, the IC50 in [13] came out at 1970 nM; in data set [17], 163 nM. The IC80 was 7140 nM in data set [13]; 45600 nM in [14]; above 50000 nM in [15]; above 50000 nM in data set [16]; 7760 nM in data set [17]. The LN metastasis in data set [18] is 2/5. Moreover, the Tumor incidence in [18] is on record as 5/6. Also, the “Tumor weight (g) Median” value in [18] was determined as 0.43 g. Further, the “tolerability (reason for dose lowering at day 5)” value in data set [19] is recorded as “weight loss”.
